Data: the NIST ThermoML archive (doi:10.1021/je7006549)
Numbers after ± are expanded uncertainties.

Assay: mn = molality of the nth substance listed, in mol/kg
Settings: 101 kPa, Liquid

CC1=CC(=O)c2ccccc2C1=O [2-methyl-1,4-naphthalenedione] + Cc1ccccc1
mass density (303.15 K, m1 = 0.0454): 859.6 ± 0.7 kg/m3
viscosity (303.15 K, m1 = 0.0454): 0.5365 ± 0.0091 mPa·s
mass density (303.15 K, m1 = 0.0909): 861.7 ± 0.7 kg/m3
viscosity (303.15 K, m1 = 0.0909): 0.544 ± 0.0092 mPa·s
mass density (303.15 K, m1 = 0.1365): 863.8 ± 0.7 kg/m3
viscosity (303.15 K, m1 = 0.1365): 0.5487 ± 0.0092 mPa·s
mass density (303.15 K, m1 = 0.1817): 865.9 ± 0.7 kg/m3
viscosity (303.15 K, m1 = 0.1817): 0.5572 ± 0.0093 mPa·s
mass density (303.15 K, m1 = 0.227): 868 ± 0.7 kg/m3
viscosity (303.15 K, m1 = 0.227): 0.5612 ± 0.0093 mPa·s
mass density (303.15 K, m1 = 0.2728): 870.1 ± 0.7 kg/m3
viscosity (303.15 K, m1 = 0.2728): 0.5683 ± 0.0093 mPa·s
mass density (308.15 K, m1 = 0.0454): 855 ± 0.8 kg/m3
viscosity (308.15 K, m1 = 0.0454): 0.5088 ± 0.0089 mPa·s
mass density (308.15 K, m1 = 0.0909): 857.1 ± 0.8 kg/m3
viscosity (308.15 K, m1 = 0.0909): 0.516 ± 0.0089 mPa·s
mass density (308.15 K, m1 = 0.1365): 859.2 ± 0.8 kg/m3
viscosity (308.15 K, m1 = 0.1365): 0.5185 ± 0.009 mPa·s
mass density (308.15 K, m1 = 0.1817): 861.3 ± 0.8 kg/m3
viscosity (308.15 K, m1 = 0.1817): 0.5246 ± 0.009 mPa·s
mass density (308.15 K, m1 = 0.227): 863.4 ± 0.8 kg/m3
viscosity (308.15 K, m1 = 0.227): 0.5277 ± 0.009 mPa·s
mass density (308.15 K, m1 = 0.2728): 865.5 ± 0.8 kg/m3
viscosity (308.15 K, m1 = 0.2728): 0.5346 ± 0.0091 mPa·s
mass density (313.15 K, m1 = 0.0454): 850 ± 0.8 kg/m3
viscosity (313.15 K, m1 = 0.0454): 0.4814 ± 0.0087 mPa·s
mass density (313.15 K, m1 = 0.0909): 852.1 ± 0.8 kg/m3
viscosity (313.15 K, m1 = 0.0909): 0.488 ± 0.0087 mPa·s
mass density (313.15 K, m1 = 0.1365): 854.2 ± 0.8 kg/m3
viscosity (313.15 K, m1 = 0.1365): 0.4902 ± 0.0088 mPa·s
mass density (313.15 K, m1 = 0.1817): 856.3 ± 0.8 kg/m3
viscosity (313.15 K, m1 = 0.1817): 0.4955 ± 0.0088 mPa·s
mass density (313.15 K, m1 = 0.227): 858.4 ± 0.8 kg/m3
viscosity (313.15 K, m1 = 0.227): 0.4987 ± 0.0088 mPa·s
mass density (313.15 K, m1 = 0.2728): 860.5 ± 0.8 kg/m3
viscosity (313.15 K, m1 = 0.2728): 0.5051 ± 0.0089 mPa·s
mass density (318.15 K, m1 = 0.0454): 845.6 ± 0.8 kg/m3
viscosity (318.15 K, m1 = 0.0454): 0.4535 ± 0.0085 mPa·s
mass density (318.15 K, m1 = 0.0909): 847.7 ± 0.8 kg/m3
viscosity (318.15 K, m1 = 0.0909): 0.4582 ± 0.0085 mPa·s
mass density (318.15 K, m1 = 0.1365): 849.8 ± 0.8 kg/m3
viscosity (318.15 K, m1 = 0.1365): 0.463 ± 0.0086 mPa·s
mass density (318.15 K, m1 = 0.1817): 851.9 ± 0.8 kg/m3
viscosity (318.15 K, m1 = 0.1817): 0.4677 ± 0.0086 mPa·s
mass density (318.15 K, m1 = 0.227): 854 ± 0.8 kg/m3
viscosity (318.15 K, m1 = 0.227): 0.4753 ± 0.0086 mPa·s
mass density (318.15 K, m1 = 0.2728): 856.1 ± 0.8 kg/m3
viscosity (318.15 K, m1 = 0.2728): 0.4775 ± 0.0087 mPa·s
mass density (323.15 K, m1 = 0.0454): 840.8 ± 0.8 kg/m3
viscosity (323.15 K, m1 = 0.0454): 0.4321 ± 0.0083 mPa·s
mass density (323.15 K, m1 = 0.0909): 842.9 ± 0.8 kg/m3
viscosity (323.15 K, m1 = 0.0909): 0.4362 ± 0.0084 mPa·s
mass density (323.15 K, m1 = 0.1365): 845 ± 0.8 kg/m3
viscosity (323.15 K, m1 = 0.1365): 0.439 ± 0.0084 mPa·s
mass density (323.15 K, m1 = 0.1817): 847.1 ± 0.8 kg/m3
viscosity (323.15 K, m1 = 0.1817): 0.443 ± 0.0084 mPa·s
mass density (323.15 K, m1 = 0.227): 849.2 ± 0.8 kg/m3
viscosity (323.15 K, m1 = 0.227): 0.4459 ± 0.0084 mPa·s
mass density (323.15 K, m1 = 0.2728): 851.3 ± 0.8 kg/m3
viscosity (323.15 K, m1 = 0.2728): 0.4515 ± 0.0085 mPa·s
mass density (328.15 K, m1 = 0.0454): 836.1 ± 0.9 kg/m3
viscosity (328.15 K, m1 = 0.0454): 0.413 ± 0.0082 mPa·s
mass density (328.15 K, m1 = 0.0909): 838.2 ± 0.9 kg/m3
viscosity (328.15 K, m1 = 0.0909): 0.4147 ± 0.0082 mPa·s
mass density (328.15 K, m1 = 0.1365): 840.3 ± 0.9 kg/m3
viscosity (328.15 K, m1 = 0.1365): 0.4176 ± 0.0082 mPa·s
mass density (328.15 K, m1 = 0.1817): 842.4 ± 0.9 kg/m3
viscosity (328.15 K, m1 = 0.1817): 0.4208 ± 0.0083 mPa·s
mass density (328.15 K, m1 = 0.227): 844.5 ± 0.9 kg/m3
viscosity (328.15 K, m1 = 0.227): 0.4242 ± 0.0083 mPa·s
mass density (328.15 K, m1 = 0.2728): 846.6 ± 0.9 kg/m3
viscosity (328.15 K, m1 = 0.2728): 0.4303 ± 0.0083 mPa·s
mass density (333.15 K, m1 = 0.0454): 831.2 ± 0.9 kg/m3
viscosity (333.15 K, m1 = 0.0454): 0.3872 ± 0.008 mPa·s
mass density (333.15 K, m1 = 0.0909): 833.3 ± 0.9 kg/m3
viscosity (333.15 K, m1 = 0.0909): 0.3909 ± 0.008 mPa·s
mass density (333.15 K, m1 = 0.1365): 835.4 ± 0.9 kg/m3
viscosity (333.15 K, m1 = 0.1365): 0.3927 ± 0.0081 mPa·s
mass density (333.15 K, m1 = 0.1817): 837.5 ± 0.9 kg/m3
viscosity (333.15 K, m1 = 0.1817): 0.398 ± 0.0081 mPa·s
mass density (333.15 K, m1 = 0.227): 839.6 ± 0.9 kg/m3
viscosity (333.15 K, m1 = 0.227): 0.4065 ± 0.0082 mPa·s
mass density (333.15 K, m1 = 0.2728): 841.7 ± 0.9 kg/m3
viscosity (333.15 K, m1 = 0.2728): 0.4137 ± 0.0082 mPa·s
